One data set deals with photoreceptors. The data set is described as follows: TUNEL staining of retinal outer nuclear layer in mouse RRD model (photoreceptor death). Type of data set: in vivo, mice. The procedure: (§1) RRD was induced in mice via subretinal injection (SRI) of 1% carboxymethylcellulose (CMC). To simulate outcomes following the clinical management of RRD, optimal conditions were determined in which SRI of CMC induced spontaneous retinal reattachment (SRR) over 10 days (RRD/SRR). K-9, 3TC, or AZT was administered via intraperitoneal (IP) injection. Inflammasome activation was monitored by cleaved caspase-1 abundance, and photoreceptor death was assessed by TUNEL staining. Retinal function was assessed by full-field scotopic electroretinography (ERG).
(§2) A persistent RRD model was established by subretinal injection (SRI) of 3 μl 1% carboxymethyl cellulose (CMC; Refresh Liquigel, Allergan, Irvine, CA, USA). The model of RRD/SRR was achieved by SRI of 3 μl 0.03% CMC. SRIs were performed as previously described (23) using a 35-gauge needle (Ito Co., Fuji, Japan).
(§3) NRTIs and K-9 were delivered via intraperitoneal (IP) injection in equimolar amounts. Lamivudine (3TC, 50 mg/kg) or azidothymidine (AZT, 60 mg/kg) was injected twice daily (SelleckChem, Houston, TX, USA). Kamuvudine K-9 (3-methyl-3TC) was synthesized as previously described (21) and administered either at a low dose (K-9L; 90 mg/kg daily) or a high dose (K-9H; 60 mg/kg twice daily, equimolar to NRTI doses). IP injection of phosphate buffered saline (PBS) was used as control. […]

Another data set deals with retinal function. Briefly: Scotopic ERG in rd10 mouse model of retinal neuronal degeneration. Type of data set: in vivo. The conditions noted are these: rd10 mice; 60 mg/kg twice daily IP, P15 until P28; vs vehicle (PBS). The protocol: FIG. 8. K-9 protects retinal function. Starting at postnatal day 15 (P15) until P28, rd10 mice were treated with K-9 at 60 mg/kg twice daily via intraperitoneal injection or with an equal volume of vehicle (PBS). Retinal function was monitored with scotopic electroretinography (ERG).
K-9 protects retinal function in the rd10 mouse model of retinal neuronal degeneration. rd10 is an autosomal missense R560C mutation in the Pde6b gene, which results in a recessively inherited retinal neuronal degeneration (FIG. 8). Starting at postnatal day 15 (P15) until P28, rd10 mice were treated with K-9 at 60 mg/kg twice daily via intraperitoneal injection or with an equal volume of vehicle (PBS). Retinal function was monitored with scotopic electroretinography (ERG).

A further data set concerns caspase-1. Briefly: Retinal cleaved caspase-1 immunoblot in mouse RRD model (inflammasome activation). It is filed as in vivo, mice. The procedure: as §1, §2, §3
In data set [1] the test system is retinal electrical function. Briefly: Full-field scotopic ERG in RRD/SRR mouse model. Type of data set: in vivo, mice. The procedure: FIGS. 7A-7D. K-9 improves ERG functional outcomes in RRD/SRR model (A) Experiment overview: the RRD/SRR model was established day 0 (SRI of 3 μl 0.03% CMC). K-9 (60 mg/kg) or PBS was administered days 0-10 twice daily IP. Scotopic ERG was measured at baseline, as well as days 7, 11, and 14. In 7A-D, n=10-12 per group. (B) ERG waveforms representative of the K-9 and PBS groups, at baseline and day 14. (C) Amplitudes of a- and b-waves over time in the K-9 (red) and PBS (blue) groups at the stimulation intensity of 1.0 log cd sec/m2. […] Data (7C-D) is represented as mean±SEM. (D) AA from baseline for PBS (blue) and K-9 (red) groups.
RRD was induced in mice via subretinal injection (SRI) of 1% carboxymethylcellulose (CMC). To simulate outcomes following the clinical management of RRD, optimal conditions were determined in which SRI of CMC induced spontaneous retinal reattachment (SRR) over 10 days (RRD/SRR). […] Inflammasome activation was monitored by cleaved caspase-1 abundance, and photoreceptor death was assessed by TUNEL staining. Retinal function was assessed by full-field scotopic electroretinography (ERG). […]
ERG was recorded at baseline, as well as days 7, 11, and 14 following SRI of CMC. Mice (n=6) were dark adapted overnight, and then ERG was measured using Ganzfeld ERG (Phoenix Laboratories). […] Responses were recorded to white-flash stimuli ranging from −1.7 to 1.0 log cd s/m2. […]

Regarding `CCOCC1OC(n2ccc(N(CC)CC)nc2=O)CS1` (stereo not shown) [K-9, 4-(diethylamino)-1-[2-(ethoxymethyl)-1,3-oxathiolan-5-yl]-1,2-dihydropyrimidin-2-one], the “degree of photoreceptor protection” value in the data set with photoreceptors (day 3 RRD model, TUNEL, IP, mean±SEM, K-9 versus NRTIs P<0.05) is listed as 56%±7%. For the same molecule, the “number of TUNEL+ cells in the ONL of the retina” value with photoreceptors (three days after inducing RRD, IP treatment, compared with PBS-treatment) is on record as “dose-dependent reduction”. Further, the “ERG a-wave and b-wave” value in the data set with retinal function is reported as “completed protection”. Also, the “degree of suppression of caspase-1 activation” value with caspase-1 (day 3 RRD model, IP, mean±SEM, K-9 versus NRTIs P<0.05) was 84%±1%. Also, the “retinal cleaved caspase-1” value in the data set with caspase-1 (three days after inducing RRD (SRI 3 μl 1% CMC), IP treatment, compared with PBS-treated mice) was “dose-dependent and complete reduction”. Also, the “retinal electrical function (ERG a- and b-wave amplitudes)” value in data set [1] (RRD/SRR model (SRI 3 μl 0.03% CMC), K-9 60 mg/kg twice daily IP days 0-10, ERG days 7-14, vs PBS) is given as “preserves retinal electrical function”. Also, the “ERG parameters following retinal reattachment” value in data set [1] (RRD/SRR model, K-9 administered during the period of retinal detachment) is “improvement”.
